# Measurements reported in US9676732B2, “Ethynyl derivatives” (Hoffmann-La Roche Inc., priority 2013, dated 2017).
# Legend:
# [1] = tested on: mice treated with 1-Methyl-4-Phenyl-1,2,3,6-Tetrahydropyridine (MPTP); settings: cited from earlier work
# [2] = tested on: marble burying test in mice; settings: preclinical model of anxiety; cited from earlier work
# [3] = tested on: EPM in mice; settings: preclinical model of anxiety; cited from earlier work
# [4] = tested on: EPM in rats; settings: cited from earlier work
# [5] = target: human mGlu4 receptor (Homo sapiens (Human), UniProt Q14833); assay: Ca2+ mobilization in vitro assay on recombinant human mGlu4 expressed in HEK293 cells (mGlu4 PAM); type: cell-based; settings: for EC50: HEK293 cells stably expressing human mGlu4, L-AP4 added at EC20, read-out: EC50 (nM) mGlu4PAM; for Eff. (%): maximal response in % of the maximal stimulatory effect obtained with saturating concentrations of L-AP4
# Chain of human mGlu4 receptor (Q14833 33-912): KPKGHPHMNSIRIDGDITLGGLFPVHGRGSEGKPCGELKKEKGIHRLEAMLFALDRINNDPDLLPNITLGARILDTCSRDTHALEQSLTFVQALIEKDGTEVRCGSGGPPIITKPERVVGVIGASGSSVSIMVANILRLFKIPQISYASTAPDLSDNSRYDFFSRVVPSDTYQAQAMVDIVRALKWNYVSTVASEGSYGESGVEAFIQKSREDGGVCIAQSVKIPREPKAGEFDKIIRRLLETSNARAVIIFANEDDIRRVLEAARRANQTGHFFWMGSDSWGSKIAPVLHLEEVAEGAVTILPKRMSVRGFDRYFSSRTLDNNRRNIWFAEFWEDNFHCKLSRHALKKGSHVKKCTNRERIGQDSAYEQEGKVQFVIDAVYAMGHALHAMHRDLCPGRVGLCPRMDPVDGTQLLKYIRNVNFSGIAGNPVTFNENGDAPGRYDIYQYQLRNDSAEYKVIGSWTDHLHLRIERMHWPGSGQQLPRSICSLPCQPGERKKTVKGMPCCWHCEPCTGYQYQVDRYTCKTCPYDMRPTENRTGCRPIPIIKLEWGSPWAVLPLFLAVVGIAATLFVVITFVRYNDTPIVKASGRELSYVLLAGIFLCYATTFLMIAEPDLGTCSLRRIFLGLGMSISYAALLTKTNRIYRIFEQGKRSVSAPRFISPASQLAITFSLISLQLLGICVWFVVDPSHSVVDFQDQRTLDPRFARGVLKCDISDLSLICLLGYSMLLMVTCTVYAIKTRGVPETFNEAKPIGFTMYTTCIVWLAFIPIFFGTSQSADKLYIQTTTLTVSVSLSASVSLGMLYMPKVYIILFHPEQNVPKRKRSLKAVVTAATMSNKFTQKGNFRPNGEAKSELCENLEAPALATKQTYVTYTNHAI
# Method in brief: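 HEK293 cells stably expressing human mGlu4 at low level, loaded with Fluo-4AM, pre-incubated 10–30 min at 37° C with 11 half-log compound dilutions, then challenged with L-AP4 at EC20. Peak fluorescence over basal, normalized to saturating L-AP4, fitted to a four-parameter curve for EC50 and % Emax.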
# [6] = tested on: 6-OHDA rodent model of PD; settings: cited from earlier work
smiles,measurement,setting,value
"O=C(Nc1ccccc1)C12CC1/C(=N\O)c1ccccc1O2 (single isomer, unassigned; (-)) [(−)-PHCCC]",nigrostriatal degeneration,[1],reduced nigrostriatal degeneration
Cc1ccnc(Nc2nc(-c3cn[nH]c3)c(C)s2)n1 [ADX88178],activity in marble burying test,[2],active
same,activity in EPM,[3],active
same,profile in rat EPM test,"[4]; rat, after oral dosing",anxiolytic-like profile
same,activity in EPM,"[4]; rats, preclinical model of anxiety",active
"Cc1cccc2c(=O)n(-c3c(F)cc(C#Cc4cccnc4)cc3F)c(=O)n(C)c12 [Example 73, 3-[2,6-Difluoro-4-[2-(3-pyridyl)ethynyl]phenyl]-1,8-dimethyl-quinazoline-2,4-dione]",EC50,[5],154 nM
same,Eff. (%),[5],197%
"Cn1c(=O)n(-c2c(F)cc(C#Cc3ccccc3)cc2F)c(=O)c2cccc(OCC(F)F)c21 [Example 74, 8-(2,2-Difluoroethoxy)-3-[2,6-difluoro-4-(2-phenylethynyl)phenyl]-1-methyl-quinazoline-2,4-dione]",EC50,[5],60 nM
same,Eff. (%),[5],122%
"N[C@@H](CCP(=O)(O)O)C(=O)O [L-AP4, (2S)-2-amino-4-phosphonobutanoic acid]",neuroprotection,[6],neuroprotective effects
